The term T/C denotes the ratio of treated to control.

One series concerns L1210 cells. As to the kind of experiment: Effect of nucleotides on the life span of mice inoculated with L1210 cells. To be noted: for 30 days survivors / MST (mean survival time) / T/C: L1210, mice. In kind it is in vivo. An excerpt: The characteristic of the said nucleotide pyrophosphotransferase is that it inhibits the growth of Hela S3, L1210 and L5178Y cells in culture at a relatively low concentration, 5 to 10 units/ml. […] The nucleotide or enzyme is combined with a conventional pharmaceutically acceptable nontoxic carrier for intraperitoneal administration.
Tumor: L1210, Sloan-Kettering line, 10^5 cells/head, i.p.
MST: Mean survival time

The subject of series [1] is nucleotide pyrophosphotransferase, enzymes obtained from the six actinomycetes (Streptomyces adephospholyticus A4668 ATCC 31122, St. aspergilloides ATCC 14808 …). Put plainly: Inhibitory action of nucleosides, nucleotides, bases and general enzyme inhibitors on nucleotide pyrophosphotransferase. In kind it is biochemical. As for the experimental part:
(1) Inorganic phosphate determination by a modification of Nakamura's method: The standard reaction mixture contained 0.25 M glycine-NaOH buffer (pH 10.0), 0.2 ml.; 0.05 M MgCl2, 0.05 ml.; 0.05 M ATP, 0.05 ml.; the enzyme solution (to be diluted by buffer if necessary), 0.1 ml.; and distilled water, 0.1 ml. in a final volume of 0.5 ml. After incubation at 37° C. for 10 minutes, the reaction was terminated by adding 0.5 ml. of 0.2 N acetic acid, and chilling on ice. Immediately, 3 ml. of developing reagent (amidol-molybdate) was added and the mixture was allowed to stand for 10 minutes at 37° C. The optical density was measured at 750 nm and the moles of Pi released were calculated using the standard curve for Pi.
The reaction mixture contained 20 mM adenosine-8-3H-triphosphate (2 mCi/m mole), 5 mM MgCl2, 62.5 mM glycine-NaOH buffer (pH 10.0) and 0.1 ml. of enzyme solution to give a total volume of 0.2 ml. The mixture was incubated at 37° C. for 10 minutes and the incubation was terminated by addition of 0.01 ml. of 1 N acetic acid. Twenty microliters of the reaction mixture were spotted on a polyethyleneimine (PEI) cellulose F thin layer sheet (E. Merck AG), dried and developed in 0.75 M KH2 PO4, pH 3.4, for two hours at room temperature. After chromatography the sheets were dried and exposed to ultraviolet light provided by a Manasul UV lamp to localize the pppApp and AMP formed. The spots on the chromatograms corresponding to pppApp and AMP were cut out and placed in a scintillation vial containing 0.5 ml. of 0.1 N HCl. Vials were boiled for 15 minutes to elute nucleotides adsorbed on the PEI-cellulose and radioactivity was measured by 10 ml. of BRAY Solution in a liquid scintillation counter. A unit of enzyme activity is defined as the amount of enzyme forming 1μ mole of pppApp or AMP per minute under the above condition.
Inhibitory actions of 40 substances which are general enzyme inhibitors such as nucleosides, nucleotides and their bases were examined for their effect on the enzymes obtained from the six actinomycetes.

Where [2] appears, read: 5 mg/kg.day i.p. once daily for 10 days.
Where [3] appears, read: 10 mg/kg.day i.p. once daily for 10 days.
[4] abbreviates: 20 mg/kg.day i.p. once daily for 10 days.
Where [5] appears, read: BDF1 mice, L1210 i.p., i.p. once daily for 10 days.
The mark [6] stands for this setting: other nucleic acids, concentration not given.
Where [7] appears, read: 10 mM each, non-substrate nucleic acids.

In the case of `Nc1ncnc2c1ncn2[C@@H]1O[C@H](COP(=O)(O)OP(=O)(O)OP(=O)(O)O)[C@@H](O)[C@H]1O` [ATP 2Na], in the series with L1210 cells (setting [2]), the 30 days survivors is 0/5, the “MST (mean survival time)” value came to 8.7 days and the T/C came to 98%. For the same molecule, in the series on L1210 cells (setting [3]), the 30 days survivors is 0/5, the “MST (mean survival time)” value worked out at 9.2 days and the T/C is listed as 103%. For the same molecule, in the series with L1210 cells (setting [4]), the 30 days survivors is on record as 0/5, the “MST (mean survival time)” value was found to be 8.6 days and the T/C was 97%. Further, the “Effect on lifespan of tumor-bearing mice” value with L1210 cells (setting [5]) is reported as “not effective”.

For `Nc1ccn([C@@H]2O[C@H](COP(=O)(O)O)[C@@H](O)[C@H]2O)c(=O)n1` [CMP], the “Inhibition of enzyme activity” value in series [1] (setting [6]) is recorded as “not inhibitory”.

Turning to `NC(=O)c1ccc[n+]([C@@H]2O[C@H](COP(=O)([O-])OP(=O)(O)OC[C@H]3O[C@@H](n4cnc5c(N)ncnc54)[C@H](O)[C@@H]3O)[C@@H](O)[C@H]2O)c1` [NAD], the “Inhibition of enzyme activity” value in series [1] (setting [6]) is “not inhibitory”.

As for `Nc1ncnc2nc[nH]c12` [adenine], the “Inhibition of enzyme activity” value in series [1] (setting [6]) is reported as “not inhibitory”.

For the molecule `Nc1ncnc2c1ncn2[C@@H]1O[C@H](CO)[C@@H](O)[C@H]1O` [adenosine], the “Inhibition of enzyme activity” value in series [1] (setting [6]) is reported as “not inhibitory”.

Turning to `Nc1ccn([C@@H]2O[C@H](CO)[C@@H](O)[C@H]2O)c(=O)n1` [cytidine], the “Inhibition of enzyme activity” value in series [1] (setting [6]) was “not inhibitory”.

On to `Nc1cc[nH]c(=O)n1` [cytosine], for which the “Inhibition of enzyme activity” value in series [1] (setting [6]) is reported as “not inhibitory”.

With `Nc1nc2c(ncn2[C@H]2C[C@H](O)[C@@H](COP(=O)(O)OP(=O)(O)O)O2)c(=O)[nH]1` [d-GDP], the “Inhibition of enzyme activity” value in series [1] (setting [7]) is reported as “marked inhibition”.

`Nc1nc2c(ncn2[C@H]2C[C@H](O)[C@@H](COP(=O)(O)OP(=O)(O)OP(=O)(O)O)O2)c(=O)[nH]1` [d-GTP]: the “Inhibition of enzyme activity” value in series [1] (setting [7]) is “marked inhibition”.

Take `Nc1nc2nc[nH]c2c(=O)[nH]1` [guanine]: in series [1] (setting [7]), the “Inhibition of enzyme activity” value is “marked inhibition”.

`Nc1nc2c(ncn2[C@@H]2O[C@H](CO)[C@@H](O)[C@H]2O)c(=O)[nH]1` [guanosine]: the “Inhibition of enzyme activity” value in series [1] (setting [7]) is “marked inhibition”.

As for `O=c1[nH]cnc2nc[nH]c12` [hypoxanthine], the “Inhibition of enzyme activity” value in series [1] (setting [6]) is reported as “not inhibitory”.

Consider `OC[C@H]1O[C@@H](n2cnc3c(O)ncnc32)[C@H](O)[C@@H]1O` [inosine], for which the “Inhibition of enzyme activity” value in series [1] (setting [6]) was “not inhibitory”.

Consider `Nc1ncnc2c1ncn2[C@@H]1O[C@H](COP(=O)(O)OP(=O)(O)OP(=O)(O)O)[C@@H](OP(=O)(O)OP(=O)(O)O)[C@H]1O` [pppApp 7Li, adenosine 5'-triphosphate 3' (2')-diphosphate], for which, in the series on L1210 cells (setting [2]), the 30 days survivors is 1/5, the “MST (mean survival time)” value came to 14.0 days and the T/C was determined as 157%. Besides, in the series on L1210 cells (setting [3]), the 30 days survivors is 1/5, the “MST (mean survival time)” value turned out to be 12.5 days and the T/C was found to be 140%. In addition, in the series on L1210 cells (setting [4]), the 30 days survivors is reported as 2/5, the “MST (mean survival time)” value worked out at 16.8 days and the T/C is listed as 189%. In the series on L1210 cells (setting [5]), the “Accumulation of abdominal dropsy” value is “distinctly suppressed”, the “Effect on lifespan of tumor-bearing mice” value is recorded as “prolonged the lifespan” and the “Toxicity to the mice” value is listed as “without causing toxicity”.

Take `O=c1cc[nH]c(=O)[nH]1` [uracil]: in series [1] (setting [6]), the “Inhibition of enzyme activity” value is given as “not inhibitory”.

As for `O=c1ccn([C@@H]2O[C@H](CO)[C@@H](O)[C@H]2O)c(=O)[nH]1` [uridine], the “Inhibition of enzyme activity” value in series [1] (setting [6]) is “not inhibitory”.

Consider `O=c1[nH]c(=O)c2[nH]cnc2[nH]1` [xanthine], for which the “Inhibition of enzyme activity” value in series [1] (setting [6]) is on record as “not inhibitory”.
